Source: ChEMBL document CHEMBL6153079, “Discovery of noncovalent diaminopyrimidine-based Inhibitors for glioblastoma via a dual FAK/DNA targeting strategy” (Eur J Med Chem, 2025)
Activity calls are given as the source filed them. The calls are words filed in the database; no cut-off is given here.

Assays:
[1] = test system: U-87 MG; experiment: Antiproliferative activity against human U-87 MG assessed as cell viability incubated for 48 hrs by MTT assay; format: functional, cell-based, U-87MG ATCC
[2] = target: T1, Focal adhesion kinase 1 (Homo sapiens, UniProt Q05397); experiment: Inhibition of FAK (unknown origin) at 50 nM relative to control
Target sequence in this assay (Q05397 2-1052 limits assumed): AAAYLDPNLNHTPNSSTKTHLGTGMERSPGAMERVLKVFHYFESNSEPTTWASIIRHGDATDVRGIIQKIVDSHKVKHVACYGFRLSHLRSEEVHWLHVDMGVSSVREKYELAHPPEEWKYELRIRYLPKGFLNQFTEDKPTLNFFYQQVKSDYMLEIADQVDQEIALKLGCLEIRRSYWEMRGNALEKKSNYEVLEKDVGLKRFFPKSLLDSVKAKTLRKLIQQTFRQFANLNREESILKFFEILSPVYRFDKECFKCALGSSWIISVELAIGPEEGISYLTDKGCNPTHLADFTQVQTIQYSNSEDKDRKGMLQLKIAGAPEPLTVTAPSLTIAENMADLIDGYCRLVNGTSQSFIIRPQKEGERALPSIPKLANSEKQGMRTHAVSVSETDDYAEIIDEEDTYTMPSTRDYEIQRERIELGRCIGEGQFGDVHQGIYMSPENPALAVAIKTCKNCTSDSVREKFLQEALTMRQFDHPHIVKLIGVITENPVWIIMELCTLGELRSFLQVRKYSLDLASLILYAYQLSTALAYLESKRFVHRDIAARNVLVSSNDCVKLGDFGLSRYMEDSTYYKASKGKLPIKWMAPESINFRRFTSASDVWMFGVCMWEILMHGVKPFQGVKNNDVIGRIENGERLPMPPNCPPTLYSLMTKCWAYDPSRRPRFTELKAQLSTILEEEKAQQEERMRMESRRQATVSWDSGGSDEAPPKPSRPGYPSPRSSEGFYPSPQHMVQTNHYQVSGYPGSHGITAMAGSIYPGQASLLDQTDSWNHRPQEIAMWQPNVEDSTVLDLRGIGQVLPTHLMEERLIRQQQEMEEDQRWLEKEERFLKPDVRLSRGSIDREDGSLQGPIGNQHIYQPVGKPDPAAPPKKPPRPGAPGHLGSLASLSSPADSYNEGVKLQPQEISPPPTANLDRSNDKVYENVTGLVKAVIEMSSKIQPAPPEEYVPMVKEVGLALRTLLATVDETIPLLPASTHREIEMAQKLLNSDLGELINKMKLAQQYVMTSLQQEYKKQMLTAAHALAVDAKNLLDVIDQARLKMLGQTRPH

[3] = target: T1, Focal adhesion kinase 1; experiment: Inhibition of FAK (unknown origin) at 10 nM relative to control
Target sequence in this assay (Q05397 2-1052 limits assumed): as above

[4] = test system: U-251; experiment: Antiproliferative activity against human U-251 assessed as cell viability incubated for 48 hrs by MTT assay; format: functional, cell-based; details: U-251, 48 h
[5] = Effective permeability of compound at pH 7.4 incubated for 16 hrs by LCMS analysis; format: ADME; details: pH 7.4, 16 h
[6] = Cytotoxicity against human 2BS assessed as cell viability incubated for 48 hrs by MTT assay; format: toxicity, cell-based; details: 2BS cells
[7] = Selectivity ratio of IC50 for cytotoxicity against human LO2 assessed as cell viability to IC50 for antiproliferative activity against human U-87 MG assessed as cell viability; format: toxicity; details: LO2 cells versus U-87 MG cells, read-out: Ratio IC50
[8] = target: T1, Focal adhesion kinase 1; experiment: Inhibition of FAK (unknown origin) preincubated for 10 mins followed by ATP and substrate addition and measured after 50 mins by HTRF analysis
Target sequence in this assay (Q05397 whole entry): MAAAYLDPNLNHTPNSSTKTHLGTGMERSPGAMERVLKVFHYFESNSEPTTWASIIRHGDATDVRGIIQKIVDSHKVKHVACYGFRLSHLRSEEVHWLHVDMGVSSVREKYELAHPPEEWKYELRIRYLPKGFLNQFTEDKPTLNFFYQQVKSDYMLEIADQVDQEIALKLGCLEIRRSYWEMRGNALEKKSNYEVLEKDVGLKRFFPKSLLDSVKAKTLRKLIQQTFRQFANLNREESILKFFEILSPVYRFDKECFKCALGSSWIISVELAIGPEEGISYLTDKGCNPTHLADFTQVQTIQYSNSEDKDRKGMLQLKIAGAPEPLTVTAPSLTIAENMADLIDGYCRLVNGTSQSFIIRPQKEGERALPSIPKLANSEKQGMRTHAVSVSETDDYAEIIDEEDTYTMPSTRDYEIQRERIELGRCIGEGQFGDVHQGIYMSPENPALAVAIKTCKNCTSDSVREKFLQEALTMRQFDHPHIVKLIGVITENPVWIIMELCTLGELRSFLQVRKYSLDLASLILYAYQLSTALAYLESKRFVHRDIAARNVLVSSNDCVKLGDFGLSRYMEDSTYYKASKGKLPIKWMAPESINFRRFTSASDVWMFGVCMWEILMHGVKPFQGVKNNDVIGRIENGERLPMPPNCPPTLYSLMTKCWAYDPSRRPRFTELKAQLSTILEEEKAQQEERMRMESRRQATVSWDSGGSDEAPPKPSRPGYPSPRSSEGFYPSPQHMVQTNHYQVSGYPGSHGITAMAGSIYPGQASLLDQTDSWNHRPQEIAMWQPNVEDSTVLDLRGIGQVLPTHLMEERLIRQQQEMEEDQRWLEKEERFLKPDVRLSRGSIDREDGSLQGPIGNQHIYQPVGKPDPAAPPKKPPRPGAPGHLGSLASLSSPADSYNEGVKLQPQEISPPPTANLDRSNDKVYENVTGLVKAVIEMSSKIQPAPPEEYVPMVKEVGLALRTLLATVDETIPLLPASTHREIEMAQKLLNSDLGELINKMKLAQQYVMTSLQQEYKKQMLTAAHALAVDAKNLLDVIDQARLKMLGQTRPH

[9] = Distribution coefficient, logD of compound in n-Octanol/water at pH 7.4; format: physicochemical
[10] = Cytotoxicity against human LO2 assessed as cell viability incubated for 48 hrs by MTT assay; format: toxicity, cell-based, L02; details: LO2 cells
[11] = Selectivity ratio of IC50 for cytotoxicity against human LO2 assessed as cell viability to IC50 for antiproliferative activity against human U-251 assessed as cell viability; format: toxicity; details: LO2 cells versus U-251 cells, read-out: Ratio IC50
[12] = test system: U-87 MG; experiment: Induction of DNA damage in human U-87 MG cells assessed as comet tail moment at 0.1 to 2 uM incubated for 2.5 to 3 hrs by comet assay; format: functional; details: U-87MG ATCC, time 2.5-3 hrs

## CNC(=O)c1ccccc1Nc1nc(Nc2ccc(N3CCN(CCOC(=O)CCCc4ccc(N(CCCl)CCCl)cc4)CC3)cc2)ncc1[N+](=O)[O-]
[1]
  IC50: 0.605 µM
[2]
  inhibition: 75.4%
[3]
  inhibition: 36.5%
[4]
  IC50: 0.849 µM

## O=C(O)CCCc1ccc(N(CCCl)CCCl)cc1 [CHLORAMBUCIL]
[1]
  IC50: > 50 µM
[2]
  inhibition: 8.54%
[3]
  inhibition: 2.77%
[4]
  IC50: > 50 µM

## CNC(=O)c1ccccc1Nc1nc(Nc2ccc(N3CCN(CCOC(=O)c4ccc(N(CCCl)CCCl)cc4)CC3)cc2)ncc1C(F)(F)F
[5]
  Peff: 0.001 10^-6 cm/s
[1]
  IC50: 0.027 µM
[2]
  inhibition: 96.4%
[6]
  IC50 at 48 h: 24.1 µM
[3]
  inhibition: 81.3%
[7]
  selectivity ratio: > 40
[8]
  IC50: 0.00428 µM
[9]
  logD: 5.34
[10]
  IC50 at 48 h: 1.21 µM
[11]
  selectivity ratio: > 40
[4]
  IC50: 0.031 µM

## CNC(=O)c1ccccc1Nc1nc(Nc2ccc(N3CCNCC3)cc2)ncc1Cl
[1]
  IC50: 0.036 µM
[2]
  inhibition: 78.6%
[3]
  inhibition: 67.9%
[4]
  IC50: 0.079 µM

## CNC(=O)c1ccccc1Nc1nc(Nc2ccc(N3CCN(C(=O)c4ccc(N(CCCl)CCCl)cc4)CC3)cc2)ncc1Cl
[1]
  IC50: 1.76 µM
[2]
  inhibition: 77.5%
[3]
  inhibition: 55.8%
[4]
  IC50: 6.25 µM

## CNC(=O)c1ccccc1Nc1nc(Nc2ccc(N3CCN(C(=O)c4ccc(N(CCCl)CCCl)cc4)CC3)cc2OC)ncc1Cl
[1]
  IC50: > 50 µM
[2]
  inhibition: 64.6%
[3]
  inhibition: 26.2%
[4]
  IC50: > 50 µM

## CNC(=O)c1ccccc1Nc1nc(Nc2ccc(N3CCN(C)CC3)cc2)ncc1Cl
[12]
  Activity: inactive
[1]
  IC50: 0.017 µM
[2]
  inhibition: 80.2%
[6]
  IC50 at 48 h: 11.6 µM
[3]
  inhibition: 76.4%
[7]
  selectivity ratio: > 40
[8]
  IC50: 0.0032 µM
[9]
  logD: 3.1
[10]
  IC50 at 48 h: 0.801 µM
[11]
  selectivity ratio: > 40
[4]
  IC50: 0.064 µM

## CNC(=O)c1ccccc1Nc1nc(Nc2ccc(C3CCN(C(=O)c4ccc(N(CCCl)CCCl)cc4)CC3)cc2)ncc1Cl
[1]
  IC50: 39.6 µM
[2]
  inhibition: 58.6%
[3]
  inhibition: 34%
[4]
  IC50: > 50 µM

## CNC(=O)c1ccccc1Nc1nc(Nc2ccc(N3CCN(C(=O)CCCc4ccc(N(CCCl)CCCl)cc4)CC3)cc2OC)ncc1Cl
[1]
  IC50: 18 µM
[2]
  inhibition: 67.3%
[3]
  inhibition: 32.2%
[4]
  IC50: > 50 µM

## CNC(=O)c1ccccc1Nc1nc(Nc2ccc(N3CCN(CCOC(=O)CCCc4ccc(N(CCCl)CCCl)cc4)CC3)cc2)ncc1Cl
[1]
  IC50: 0.095 µM
[2]
  inhibition: 94.5%
[3]
  inhibition: 79.8%
[4]
  IC50: 0.485 µM

## CNC(=O)c1ccccc1Nc1nc(Nc2ccc(N3CCN(CCOC(=O)CCCc4ccc(N(CCCl)CCCl)cc4)CC3)cc2)ncc1Br
[1]
  IC50: 0.03 µM
[2]
  inhibition: 94.2%
[3]
  inhibition: 68.4%
[4]
  IC50: 0.081 µM

## CNC(=O)c1ccccc1Nc1nc(Nc2ccc(N3CCN(CCOC(=O)CCCc4ccc(N(CCCl)CCCl)cc4)CC3)cc2)ncc1C
[1]
  IC50: 0.042 µM
[2]
  inhibition: 97.5%
[3]
  inhibition: 65.8%
[4]
  IC50: 0.168 µM

## CNC(=O)c1ccccc1Nc1nc(Nc2ccc(N3CCN(CCOC(=O)c4ccc(N(CCCl)CCCl)cc4)CC3)cc2)ncc1Cl
[1]
  IC50: 0.39 µM
[2]
  inhibition: 78.5%
[3]
  inhibition: 51.9%
[4]
  IC50: 1.21 µM

## CNC(=O)c1ccccc1Nc1nc(Nc2ccc(N3CCN(CCO)CC3)cc2)ncc1Cl
[1]
  IC50: 0.062 µM
[2]
  inhibition: 77.9%
[3]
  inhibition: 67.7%
[4]
  IC50: 0.194 µM

## CNC(=O)c1ccccc1Nc1nc(Nc2ccc(C3CCN(C(=O)CCCc4ccc(N(CCCl)CCCl)cc4)CC3)cc2)ncc1Cl
[1]
  IC50: 1.4 µM
[2]
  inhibition: 67.5%
[3]
  inhibition: 56.4%
[4]
  IC50: 18.2 µM

## CNC(=O)c1ccccc1Nc1nc(Nc2ccc(N3CCN(C(=O)CCCc4ccc(N(CCCl)CCCl)cc4)CC3)cc2)ncc1Cl
[1]
  IC50: 0.99 µM
[2]
  inhibition: 74.2%
[3]
  inhibition: 55.4%
[4]
  IC50: 3.7 µM
